Paper PMC3290907 (Evidence-based Complementary and Alternative Medicine : eCAM, 2012)

Biological target: T1, PDE4 (homogenate of guinea pig lungs or hearts)
T1 construct: gene PDE4A; native enzyme activity in lung or heart homogenate; subtype not resolved; other PDE families may be present
Experiment: [3H]-cAMP hydrolysis, two-step radioassay, Lineweaver-Burk
Format: biochemical, Cavia porcellus
Conditions: cAMP substrate; 3 mM MgCl2; pH 7.4; 37°C; competitive; lung or heart homogenate

Structure (SMILES): COc1ccc([C@@H]2CC(=O)c3c(O)cc(O)cc3O2)cc1O [hesperetin, 5,7,3′-trihydroxy-4′-methoxyflavanone]
- Ki: 45.6 ± 2.3 µM
